Results on two compounds are retold here after patent US6846844B2, “Compounds and compositions for delivering active agents” (Emisphere Technologies, Inc., priority 2000, dated 2005).

Molecules are shown by their SMILES.

Series [1] can be described thus: Intracolonic delivery of heparin with delivery agent compound, activated partial thromboplastin time (APTT). The format is in vivo, Sprague-Dawley rats. The following applies: rats, intracolonic (IC); compound dose 50 mg/kg, heparin dose 25 mg/kg, volume dose 1 ml/kg; five rats; baseline about 20 sec. The protocol: Intracolonic (IC) dosing solutions containing a delivery agent compound and heparin sodium USP in 25% aqueous propylene glycol were prepared. Either the sodium salt of the delivery agent compound was used or the free acid was converted to the sodium salt with one equivalent of sodium hydroxide. Typically, the delivery agent compound and heparin (about 166-182 IU/mg) were mixed by vortex as dry powders. This dry mixture was dissolved in 25% v/v aqueous propylene glycol, vortexed and placed in a sonicator (about 37° C.). The pH was adjusted to about 7 (6.5 to 8.5) with aqueous NaOH (2N). The dosing solution was sonicated to produce a clear solution. The final volume was adjusted to 3.0 mL. The final delivery agent compound dose, heparin dose and volume dose amounts are listed below in Table 2.
The typical dosing and sampling protocols were as follows. […]
Citrated blood samples were collected by cardiac puncture following the administration of ketamine (88 mg/kg), typically at time=0.25, 0.5, 1.0 and 1.5 hours. Heparin activity was determined by utilizing the activated partial thromboplastin time (APTT) according to the method of Henry, J. B., Clinical Diagnosis and Management by Laboratory Methods, Philadelphia, Pa., W. B. Saunders (1979). […]

Turning to `Cc1c(Cl)cc(NC(=O)CC(C)CC(=O)O)c(O)c1Cl` (stereo not drawn) [Compound 1, 3R-5-[(3,5-dichloro-2-hydroxy-4-methylphenyl)amino]-3-methyl-5-oxopentanoic acid], the melting point – broadly, the temperature, or range, at which the solid turns liquid – lay in the range of 171 to 173 °C. Besides, in series [1], the “Mean Peak APTT (sec) ± SD” value is 205.8 ± 32.4 s.

In turn, `Cc1ccc(NC(=O)C[C@@H](C)CC(=O)O)c(O)c1` [Compound 2, (3R)-5-[(2-hydroxy-4-methylphenyl)amino]-3-methyl-5-oxo-pentanoic acid] displayed a melting point of 117 to 118 °C.
